Values joined by “and” are separate entries in the source; they are usually repeats but may differ in a detail not shown here. Equal values may be shown once. Inconclusive results and toxic doses are left out.
System: P388 leukemia ip, CD2F1 mice, survival T/C
Assay: NCI In Vivo Anticancer Drug Screen. Data for tumor model P388 Leukemia (intraperitoneal) in CD2F1 (CDF1) mice
Settings: endpoint: median survival time, higher = longer survival
Procedure, shortened: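 Mice carrying the transplanted tumor received test compound or vehicle. Survival was recorded in each group, and the value is the treated-group measurement divided by that of the vehicle-treated control group.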

[1] = dose: 60.0 mg/kg/injection, schedule: Q01DX005 (ip), vehicle: saline
[2] = dose: 120.0 mg/kg/injection, schedule: Q01DX005 (ip), vehicle: saline
[3] = dose: 240.0 mg/kg/injection, schedule: Q01DX005 (ip), vehicle: saline
[4] = dose: 25.0 mg/kg/injection, schedule: Q01DX009 (ip), vehicle: saline with Tween-80
[5] = dose: 50.0 mg/kg/injection, schedule: Q01DX009 (ip), vehicle: saline with Tween-80
[6] = dose: 200.0 mg/kg/injection, schedule: Q01DX009 (ip), vehicle: saline with Tween-80
[7] = dose: 50.0 mg/kg/injection, schedule: Q01DX009 (ip), vehicle: saline
[8] = dose: 100.0 mg/kg/injection, schedule: Q01DX009 (ip), vehicle: saline
[9] = dose: 200.0 mg/kg/injection, schedule: Q01DX009 (ip), vehicle: saline
[10] = dose: 400.0 mg/kg/injection, schedule: Q01DX009 (ip), vehicle: saline
[11] = dose: 100.0 mg/kg/injection, schedule: Q01DX009 (ip), vehicle: saline with Tween-80
[12] = dose: 7.5 mg/kg/injection, schedule: Q01DX005 (ip), vehicle: saline
[13] = dose: 15.0 mg/kg/injection, schedule: Q01DX005 (ip), vehicle: saline
[14] = dose: 50.0 mg/kg/injection, schedule: Q01DX005 (ip), vehicle: saline with Tween-80
[15] = dose: 100.0 mg/kg/injection, schedule: Q01DX005 (ip), vehicle: saline with Tween-80
[16] = dose: 200.0 mg/kg/injection, schedule: Q01DX005 (ip), vehicle: saline with Tween-80
[17] = dose: 25.0 mg/kg/injection, schedule: Q01DX005 (ip), vehicle: Klucel (hydroxypropylcellulose) (HPC)
[18] = dose: 50.0 mg/kg/injection, schedule: Q01DX005 (ip), vehicle: Klucel (hydroxypropylcellulose) (HPC)
[19] = dose: 100.0 mg/kg/injection, schedule: Q01DX005 (ip), vehicle: Klucel (hydroxypropylcellulose) (HPC)
[20] = dose: 60.0 mg/kg/injection, schedule: Q01DX005 (ip), vehicle: saline with Tween-80
[21] = dose: 120.0 mg/kg/injection, schedule: Q01DX005 (ip), vehicle: saline with Tween-80

CC(C)=CCCC(=O)C(c1nc2nnc(N)n2[nH]c1=O)c1nc2nnc(N)n2[nH]c1=O
T/C [1]: 104 % of control | T/C [2]: 104 % of control | T/C [3]: 95 % of control

CCCCOP(O)(=S)OCCCC.[Gd]
T/C [4]: 92 % of control | T/C [5]: 87 % of control and 98 % of control | T/C [6]: 86 % of control

N#Cc1c(SCc2ccc(Cl)cc2)nsc1Nc1ccc(Cl)cc1
T/C (dose: 12.5 mg/kg/injection, schedule: Q01DX009 (ip), vehicle: saline with Tween-80): 96 % of control | T/C [4]: 91 % of control | T/C [5]: 92 % of control

C=C1CCOC2(C(O)C(C)(O)CO)NC(=O)C1(O)NC2=O (stereo unspecified)
T/C [7]: 108 % of control | T/C [8]: 118 % of control | T/C [9]: 103 % of control | T/C [10]: 108 % of control

CCCCN1C(=O)/C(=C/c2ccc(OC)cc2)SC1=S
T/C [5]: 100 % of control | T/C [11]: 94 % of control | T/C [6]: 90 % of control

CC/C(=C(\CC)c1ccc(OC)cc1)c1ccc(OC)cc1
T/C (dose: 25.0 mg/kg/injection, schedule: Q01DX009 (ip), vehicle: Klucel (hydroxypropylcellulose) (HPC)): 107 % of control | T/C (dose: 50.0 mg/kg/injection, schedule: Q01DX009 (ip), vehicle: Klucel (hydroxypropylcellulose) (HPC)): 105 % of control | T/C [5]: 102 % of control | T/C (dose: 100.0 mg/kg/injection, schedule: Q01DX009 (ip), vehicle: Klucel (hydroxypropylcellulose) (HPC)): 106 % of control | T/C [11]: 98 % of control | T/C (dose: 200.0 mg/kg/injection, schedule: Q01DX009 (ip), vehicle: Klucel (hydroxypropylcellulose) (HPC)): 97 % of control

CC(C)c1cccc(C2(C)C(=O)c3ccccc3C2=O)c1
T/C (dose: 100.0 mg/kg/injection, schedule: Q04DX002 (ip), vehicle: saline): 99 % of control | T/C (dose: 200.0 mg/kg/injection, schedule: Q04DX002 (ip), vehicle: saline): 102 % of control | T/C (dose: 400.0 mg/kg/injection, schedule: Q04DX002 (ip), vehicle: saline): 100 % of control

CCOC(=O)NC(N)=O
T/C [5]: 91 % of control | T/C [11]: 89 % of control | T/C [6]: 89 % of control | T/C (dose: 400.0 mg/kg/injection, schedule: Q01DX009 (ip), vehicle: saline with Tween-80): 97 % of control

C/C(=N\Nc1ccccc1)C1CC2C=C(C#N)C1N(Cc1ccccc1)C2 (stereo unspecified)
T/C (dose: 8.75 mg/kg/injection, schedule: Q01DX005 (ip), vehicle: Klucel (hydroxypropylcellulose) (HPC)): 94 % of control | T/C (dose: 17.5 mg/kg/injection, schedule: Q01DX005 (ip), vehicle: Klucel (hydroxypropylcellulose) (HPC)): 96 % of control | T/C (dose: 35.0 mg/kg/injection, schedule: Q01DX005 (ip), vehicle: Klucel (hydroxypropylcellulose) (HPC)): 94 % of control

COC(=O)C(C)NP(=O)(N1CC1)N1CC1 (stereo unspecified)
T/C (dose: 1.87 mg/kg/injection, schedule: Q01DX005 (ip), vehicle: saline): 119 % of control | T/C [12]: 176 % of control | T/C (dose: 15.0 mg/kg/injection, schedule: Q01DX005 (ip), vehicle: saline with Tween-80): 257 % of control | T/C [13]: 226 % of control

Cc1ccc2c(ccc(/C=C\c3cc(C)c4cccnc4c3O)[n+]2C)c1
T/C (dose: 0.78 mg/kg/injection, schedule: Q01DX009 (ip), vehicle: saline with Tween-80): 124 % of control | T/C (dose: 1.56 mg/kg/injection, schedule: Q01DX009 (ip), vehicle: saline with Tween-80): 122 % of control | T/C (dose: 3.13 mg/kg/injection, schedule: Q01DX009 (ip), vehicle: saline with Tween-80): 121 % of control

NC(=O)C1C2C=CC(O2)C1C(=O)O (stereo unspecified)
T/C [12]: 100 % of control | T/C [13]: 104 % of control | T/C (dose: 30.0 mg/kg/injection, schedule: Q01DX005 (ip), vehicle: saline): 104 % of control

CC(C)CN1CC(=O)N2Cc3ccccc3CN2C(=O)C1
T/C [14]: 101 % of control | T/C [15]: 106 % of control | T/C [16]: 103 % of control

CC(OS(C)(=O)=O)C(C)OS(C)(=O)=O (stereo unspecified)
T/C (dose: 100.0 mg/kg/injection, schedule: Q04DX003 (ip), vehicle: Klucel (hydroxypropylcellulose) (HPC)): 89 % of control | T/C (dose: 200.0 mg/kg/injection, schedule: Q04DX003 (ip), vehicle: Klucel (hydroxypropylcellulose) (HPC)): 116 % of control | T/C (dose: 400.0 mg/kg/injection, schedule: Q04DX003 (ip), vehicle: Klucel (hydroxypropylcellulose) (HPC)): 120 % of control

COc1ccc(N=C2C(=Nc3ccc(OC)cc3)N(c3ccc(OC)cc3)C(=S)N2C(=O)c2ccc(Cl)cc2)cc1
T/C (dose: 50.0 mg/kg/injection, schedule: Q01DX005 (ip), vehicle: Klucel + Tween-80): 90 % of control | T/C (dose: 100.0 mg/kg/injection, schedule: Q01DX005 (ip), vehicle: Klucel + Tween-80): 93 % of control | T/C (dose: 200.0 mg/kg/injection, schedule: Q01DX005 (ip), vehicle: Klucel + Tween-80): 90 % of control

CC(C)(C)OC(=O)NC1CN(OCc2ccccc2)C1=O (stereo unspecified)
T/C [14]: 100 % of control | T/C [15]: 94 % of control | T/C [16]: 89 % of control

O=[N+]([O-])c1ccc2c(c1)nc(-c1ccccn1)n2CCc1ccncc1
T/C [17]: 95 % of control | T/C [18]: 94 % of control | T/C [19]: 92 % of control | T/C (dose: 200.0 mg/kg/injection, schedule: Q01DX005 (ip), vehicle: Klucel (hydroxypropylcellulose) (HPC)): 91 % of control

c1ccc(CN=C(Nc2ccc(C3=NCCN3)cc2)c2cccc(C(=NCc3ccccc3)Nc3ccc(C4=NCCN4)cc3)c2)cc1
T/C [14]: 104 % of control | T/C [15]: 104 % of control | T/C [16]: 104 % of control

CCN(CC)CCS(=O)Cc1ccccc1 (stereo unspecified)
T/C [20]: 100 % of control | T/C [21]: 93 % of control | T/C (dose: 240.0 mg/kg/injection, schedule: Q01DX005 (ip), vehicle: saline with Tween-80): 102 % of control

CCOC(=O)NN(C(=O)OCC)C(C(C)=O)C(C)=O
T/C (dose: 60.0 mg/kg/injection, schedule: Q01DX005 (ip), vehicle: Klucel (hydroxypropylcellulose) (HPC)): 104 % of control | T/C (dose: 120.0 mg/kg/injection, schedule: Q01DX005 (ip), vehicle: Klucel (hydroxypropylcellulose) (HPC)): 101 % of control | T/C (dose: 240.0 mg/kg/injection, schedule: Q01DX005 (ip), vehicle: Klucel (hydroxypropylcellulose) (HPC)): 98 % of control

COc1ccc(C(=O)Oc2ccc[nH]c2=O)cc1
T/C [7]: 102 % of control and 107 % of control | T/C [8]: 99 % of control and 102 % of control | T/C [9]: 98 % of control and 102 % of control | T/C [10]: 104 % of control and 93 % of control

CCCCCCCCCCCCCCC[N+]1([O-])CCOCC1
T/C [7]: 90 % of control | T/C [8]: 91 % of control

O=C1C=CC(Nc2ccccc2[N+](=O)[O-])C1Nc1ccccc1[N+](=O)[O-] (stereo unspecified)
T/C [20]: 114 % of control | T/C [21]: 113 % of control

COC1=CC(=O)C(O)=C/C1=C\C=C\c1ccccc1
T/C (dose: 2.5 mg/kg/injection, schedule: Q01DX009 (ip), vehicle: saline with Tween-80): 107 % of control | T/C (dose: 5.0 mg/kg/injection, schedule: Q01DX009 (ip), vehicle: saline with Tween-80): 104 % of control | T/C (dose: 10.0 mg/kg/injection, schedule: Q01DX009 (ip), vehicle: saline with Tween-80): 110 % of control

CC1(C)COCN(C2CCCCC2)C1
T/C (dose: 15.0 mg/kg/injection, schedule: Q01DX009 (ip), vehicle: saline with Tween-80): 119 % of control | T/C (dose: 30.0 mg/kg/injection, schedule: Q01DX009 (ip), vehicle: saline with Tween-80): 100 % of control | T/C (dose: 60.0 mg/kg/injection, schedule: Q01DX009 (ip), vehicle: saline with Tween-80): 108 % of control

C=C(C)C1CCC2(CO)C(O)CC3(C)C(CCC4C5(C)CCC(O)C(C)(C)C5CCC43C)C12 (stereo unspecified)
T/C (dose: 15.0 mg/kg/injection, schedule: Q01DX009 (ip), vehicle: Klucel (hydroxypropylcellulose) (HPC)): 93 % of control | T/C (dose: 30.0 mg/kg/injection, schedule: Q01DX009 (ip), vehicle: Klucel (hydroxypropylcellulose) (HPC)): 94 % of control | T/C (dose: 60.0 mg/kg/injection, schedule: Q01DX009 (ip), vehicle: Klucel (hydroxypropylcellulose) (HPC)): 86 % of control | T/C (dose: 120.0 mg/kg/injection, schedule: Q01DX009 (ip), vehicle: Klucel (hydroxypropylcellulose) (HPC)): 92 % of control

CCOC(=O)c1cc(CC)[nH]c(=O)c1C#N
T/C [17]: 92 % of control | T/C [18]: 98 % of control | T/C [19]: 100 % of control

COc1ccc(/C=N/N2CN(C(C)C(=O)O)P(Nc3ncccn3)N=C2N)cc1OC (stereo unspecified)
T/C [1]: 104 % of control | T/C [2]: 103 % of control | T/C [3]: 108 % of control
